The target in the first assay is PI3Kα (p85iSH2(461-568)-p110α(21-1068)-His, BV1075) (Homo sapiens (Human), UniProt P42336). The assay can be described thus: PI3K KinaseGlo assay, PI3Kalpha. The class given is biochemical. To be noted: KinaseGlo, 1 μM ATP, 10 nM enzyme, 30 mins.
PI3Kα (p85iSH2(461-568)-p110α(21-1068)-His, BV1075), sequence (P42336 other isoform, or with tags, fused parts or gaps): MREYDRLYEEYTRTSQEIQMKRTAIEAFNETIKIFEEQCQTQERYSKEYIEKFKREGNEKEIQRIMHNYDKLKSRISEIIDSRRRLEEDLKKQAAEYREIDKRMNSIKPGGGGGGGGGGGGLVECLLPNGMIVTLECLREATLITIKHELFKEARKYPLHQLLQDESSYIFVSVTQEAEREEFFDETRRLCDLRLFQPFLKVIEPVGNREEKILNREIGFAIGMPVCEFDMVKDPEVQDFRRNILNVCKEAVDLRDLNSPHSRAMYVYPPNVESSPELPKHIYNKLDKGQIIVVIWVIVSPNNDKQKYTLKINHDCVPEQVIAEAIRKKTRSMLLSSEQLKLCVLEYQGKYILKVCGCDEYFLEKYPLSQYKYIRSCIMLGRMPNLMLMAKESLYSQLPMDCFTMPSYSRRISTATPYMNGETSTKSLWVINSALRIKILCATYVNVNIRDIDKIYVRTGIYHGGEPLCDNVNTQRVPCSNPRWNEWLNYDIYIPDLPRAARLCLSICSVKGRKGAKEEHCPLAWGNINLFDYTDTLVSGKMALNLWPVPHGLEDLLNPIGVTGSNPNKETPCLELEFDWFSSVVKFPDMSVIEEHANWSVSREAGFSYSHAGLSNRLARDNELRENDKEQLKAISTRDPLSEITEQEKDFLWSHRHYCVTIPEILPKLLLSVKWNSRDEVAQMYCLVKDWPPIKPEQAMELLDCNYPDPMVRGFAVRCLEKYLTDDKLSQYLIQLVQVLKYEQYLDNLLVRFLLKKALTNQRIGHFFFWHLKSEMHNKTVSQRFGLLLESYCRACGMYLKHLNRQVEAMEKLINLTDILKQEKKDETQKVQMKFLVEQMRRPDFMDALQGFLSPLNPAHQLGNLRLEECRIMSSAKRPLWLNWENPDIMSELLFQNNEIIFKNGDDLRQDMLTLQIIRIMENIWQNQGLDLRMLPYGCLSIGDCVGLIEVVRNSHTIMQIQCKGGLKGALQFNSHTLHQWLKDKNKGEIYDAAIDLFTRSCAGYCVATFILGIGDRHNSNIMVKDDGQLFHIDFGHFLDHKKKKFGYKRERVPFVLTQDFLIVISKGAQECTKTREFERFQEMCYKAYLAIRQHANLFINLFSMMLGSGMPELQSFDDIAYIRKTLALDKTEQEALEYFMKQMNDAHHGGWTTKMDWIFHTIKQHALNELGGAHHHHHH
In the case of `CCCc1nccn1-c1cc(-c2sc(NC(=O)N3CC(O)CC3C(N)=O)nc2C)ccc1S(C)(=O)=O` [Example 1, (2S,4R)-4-hydroxy-pyrrolidine-1,2-dicarboxylic acid 2-amide 1-({5-[4-methanesulfonyl-3-(2-propyl-imidazol-1-yl)-phenyl]-4-methyl-thiazol-2-yl}-amide)triflouroacetate], half-maximal inhibition (IC50) was put at 170 nM. Consider `Cc1nc(NC(=O)N2C[C@H](O)C[C@H]2C(N)=O)sc1-c1ccnc(C(C)(C)C)n1` [Example 3, (2S,4R)-4-hydroxy-pyrrolidine-1,2-dicarboxylic acid 2-amide 1-{[5-(2-tert-butyl-pyrimidin-4-yl)-4-methyl-thiazol-2-yl]-amide}triflouroacetate], for which the midpoint of inhibition, the IC50, lay at 13 nM.

Regarding `Cc1nc(NC(=O)N2C[C@@H](O)C[C@H]2C(N)=O)sc1-c1ccnc(C(C)(C)C)c1` [Example 7, (2S,4S)-4-hydroxy-pyrrolidine-1,2-dicarboxylic acid 2-amide 1-{[5-(2-tert-butyl-pyridin-4-yl)-4-methyl-thiazol-2-yl]-amide}], the IC50 (as a rule, the concentration at which inhibition is half-maximal) was found to be 15 nM.

Take `Cc1nc(NC(=O)N2C[C@H]3C[C@H]3[C@H]2C(N)=O)sc1-c1ccnc(C(C)(C)C)n1` [Example 11, (1R,2S,5S)-3-aza-bicyclo[3.1.0]hexane-2,3-dicarboxylic acid 2-amide 3-{[5-(2-tert-butyl-pyrimidin-4-yl)-4-methyl-thiazol-2-yl]-amide}]: half-maximal inhibition (IC50) required 48 nM. On the same count and under the same terms, under `Cc1nc(NC(=O)N2CCC[C@@]2(C)C(N)=O)sc1-c1ccnc(C2(C)CC2)c1` [Example 40, S)-2-Methyl-pyrrolidine-1,2-dicarboxylic acid 2-amide 1-({4-methyl-5-[2-(1-methyl-cyclopropyl)-pyridin-4-yl]-thiazol-2-yl}-amide] stands 37 nM; under `Cc1nc(NC(=O)N2CCC[C@@]2(C)C(N)=O)sc1-c1ccnc(C2(C(F)(F)F)CC2)c1` [Example 46, S)-2-Methyl-pyrrolidine-1,2-dicarboxylic acid 2-amide 1-({4-methyl-5-[2-(1-trifluoromethyl-cyclopropyl)-pyridin-4-yl]-thiazol-2-yl}-amide], 9 nM. On the same count and under the same terms, in the case of `Cc1nc(NC(=O)N2CCC[C@@]2(C)C(N)=O)sc1-c1ccnc(C(C)(C)C(F)(F)F)c1` [Example 47, S)-2-Methyl-pyrrolidine-1,2-dicarboxylic acid 2-amide 1-({4-methyl-5-[2-(2,2,2-trifluoro-1,1-dimethyl-ethyl)-pyridin-4-yl]-thiazol-2-yl}-amide] it was 40 nM; in that of `Cc1nc(NC(=O)N2CCC[C@@]2(C)C(N)=O)sc1-c1ccnc(C2(C(F)(F)F)CCC2)c1` [Example 48, S)-2-Methyl-pyrrolidine-1,2-dicarboxylic acid 2-amide 1-({4-methyl-5-[2-(1-trifluoromethyl-cyclobutyl)-pyridin-4-yl]-thiazol-2-yl}-amide], 5 nM. `Cc1nc(NC(=O)N2CCC[C@@]2(C)C(N)=O)sc1-c1ccnc(C2(C#N)CC2)c1` [Example 49, S)-2-Methyl-pyrrolidine-1,2-dicarboxylic acid 2-amide 1-({5-[2-(1-cyano-cyclopropyl)-pyridin-4-yl]-4-methyl-thiazol-2-yl}-amide] returned an IC50 of 17 nM. Same read-out and setting: under `COc1ccc(C2(c3cc(-c4sc(NC(=O)N5CCC[C@@]5(C)C(N)=O)nc4C)ccn3)CC2)cc1` [Example 54, (S)-2-Methyl-pyrrolidine-1,2-dicarboxylic acid 2-amide 1-[(5-{2-[1-(4-methoxy-phenyl)-cyclopropyl]-pyridin-4-yl}-4-methyl-thiazol-2-yl)-amide]] stands 190 nM; under `Cc1nc(NC(=O)N2CC(F)(F)C[C@H]2C(N)=O)sc1-c1ccnc(C2(C)CC2)c1` [Example 59, S)-4,4-Difluoro-pyrrolidine-1,2-dicarboxylic acid 2-amide 1-({4-methyl-5-[2-(1-methyl-cyclopropyl)-pyridin-4-yl]-thiazol-2-yl}-amide], 71 nM.

With `Cc1nc(NC(=O)N2C[C@H](O)C[C@@]2(C)C(N)=O)sc1-c1ccnc(C(C)(C)C)n1` [Example 65, (2S,4R)-4-Hydroxy-2-methyl-pyrrolidine-1,2-dicarboxylic acid 2-amide 1-{[5-(2-tert-butyl-pyrimidin-4-yl)-4-methyl-thiazol-2-yl]-amide}], half-maximal inhibition (IC50) was put at 31 nM. Same read-out and setting: in the case of `CSc1nccc(-c2sc(NC(=O)N3CCC[C@@]3(C)C(N)=O)nc2C)n1` [Example 74, (S)-2-Methyl-pyrrolidine-1,2-dicarboxylic acid 2-amide 1-{[4-methyl-5-(2-methylsulphanyl-pyrimidin-4-yl)-thiazol-2-yl]-amide}] it was 130 nM; in that of `Cc1nc(NC(=O)N2CCC[C@@]2(C)C(N)=O)sc1-c1ccnc(N(C)CCN(C)C)n1` [Example 80, (S)-2-Methyl-pyrrolidine-1,2-dicarboxylic acid 2-amide 1-[(5-{2-[(2-dimethylamino-ethyl)-methyl-amino]-pyrimidin-4-yl}-4-methyl-thiazol-2-yl)-amide]], 250 nM; in that of `CCN(CC)c1nccc(-c2sc(NC(=O)N3CC[C@@H]4C[C@@]43C(N)=O)nc2C)n1` [Example 88, (1S,5R)-2-Aza-bicyclo[3.1.0]hexane-1,2-dicarboxylic acid 1-amide 2-{[5-(2-diethylamino-pyrimidin-4-yl)-4-methyl-thiazol-2-yl]-amide}], 76 nM. Still for that read-out and setting: in the case of `CCN(Cc1ccccc1)c1nccc(-c2sc(NC(=O)N3CCC[C@@]3(C)C(N)=O)nc2C)n1` [Example 98] it was 140 nM. Same read-out and setting: in the case of `CCN(CCOC)c1nccc(-c2sc(NC(=O)N3CCC[C@@]3(C)C(N)=O)nc2C)n1` [Example 101, (S)-2-Methyl-pyrrolidine-1,2-dicarboxylic acid 2-amide 1-[(5-{2-[ethyl-(2-methoxy-ethyl)-amino]-pyrimidin-4-yl}-4-methyl-thiazol-2-yl)-amide]] it was 99 nM; in that of `Cc1nc(NC(=O)N2CCC[C@@]2(C)C(N)=O)sc1-c1ccnc(-n2ccnc2C)n1` [Example 102, S)-2-Methyl-pyrrolidine-1,2-dicarboxylic acid 2-amide 1-({4-methyl-5-[2-(2-methyl-imidazol-1-yl)-pyrimidin-4-yl]-thiazol-2-yl}-amide], 210 nM.

For `Cc1nc(NC(=O)N2CCC[C@@]2(CN(C)C)C(N)=O)sc1-c1ccnc(C(C)(C)C)n1` [Example 107, (R)-2-Dimethylaminomethyl-pyrrolidine-1,2-dicarboxylic acid 2-amide 1-{[5-(2-tert-butyl-pyrimidin-4-yl)-4-methyl-thiazol-2-yl]-amide}], 44 nM corresponded to half-maximal inhibition (IC50). The same measure, in the same setting: in the case of `Cc1nc(NC(=O)N2CCC[C@@]2(C)C(N)=O)sc1-c1ccnc(CC2CC2)n1` [Example 110, (S)-2-Methyl-pyrrolidine-1,2-dicarboxylic acid 2-amide 1-{[5-(2-cyclopropylmethyl-pyrimidin-4-yl)-4-methyl-thiazol-2-yl]-amide}] it was 71 nM.

The same assay, now with this note: KinaseGlo, 1 μM ATP; alpha vs. delta selectivity table.
Consider `Cc1nc(NC(=O)N2CC[C@H](O)[C@H]2C(N)=O)sc1-c1ccnc(C(C)(C)C)n1.O=C(O)C(F)(F)F` [Example 9, (2S,3S)-3-hydroxy-pyrrolidine-1,2-dicarboxylic acid 2-amide 1-{[5-(2-tert-butyl-pyrimidin-4-yl)-4-methyl-thiazol-2-yl]-amide}triflouroacetate], for which the IC50 was 12 nM.

Still in this assay, the particulars now being: ratio of PI3Kdelta IC50 to PI3Kalpha IC50.
Regarding `Cc1nc(NC(=O)N2CC[C@H](O)[C@H]2C(N)=O)sc1-c1ccnc(C(C)(C)C)n1.O=C(O)C(F)(F)F` [Example 9, (2S,3S)-3-hydroxy-pyrrolidine-1,2-dicarboxylic acid 2-amide 1-{[5-(2-tert-butyl-pyrimidin-4-yl)-4-methyl-thiazol-2-yl]-amide}triflouroacetate], the “Selectivity PI3Kalpha vs. PI3Kdelta” value is 38-fold.

The values are drawn from patent publication US8940771B2, “Organic compounds” (Novartis AG, priority 2007, dated 2015).
